Laboratory results from ChEMBL document CHEMBL6087437 (J Med Chem, 2025).
The source made the active and inactive calls. No cut-off for these calls is given here.

Experiments:
Marburgvirus = experiment: Antiviral activity against pseudotyped Marburg virus expressing glycoprotein infected in human A549 cells assessed as inhibition of viral entry incubated for 48 hrs by Neolite reporter gene assay; format: functional, organism-based; details: Orthomarburgvirus, A549, 48 h
Ebolavirus [1] = experiment: Antiviral activity against pseudotyped Ebola virus expressing glycoprotein infected in human A549 cells assessed as inhibition of viral entry incubated for 48 hrs by Neolite reporter gene assay; format: functional, organism-based; details: Orthoebolavirus, A549, 48 h
[2] = Selectivity index, ratio of CC50 for human A549 cells to EC50 for pseudotyped Ebola virus expressing glycoprotein infected in human A549 cells; format: toxicity, cell-based; details: read-out: Ratio CC50/EC50
Influenza A virus = experiment: Antiviral activity against pseudotyped Influenza A virus A/Goose/Qinghai/59/05(H5N1) infected in human A549 cells assessed as inhibition of viral entry incubated for 48 hrs by Neolite reporter gene assay; format: functional, organism-based
Tai Forest ebolavirus = experiment: Antiviral activity against pseudotyped Tai Forest ebolavirus expressing glycoprotein infected in human A549 cells assessed as inhibition of viral entry incubated for 48 hrs by Neolite reporter gene assay; format: functional, organism-based; details: A549, 48 h
Reston ebolavirus = experiment: Antiviral activity against pseudotyped Reston ebolavirus expressing glycoprotein infected in human A549 cells assessed as inhibition of viral entry incubated for 48 hrs by Neolite reporter gene assay; format: functional, organism-based; details: A549, 48 h
HeLa = experiment: Cytotoxicity against human HeLa cells by Celltiter-Glo luminescent cell viability assay; format: toxicity, cell-based
Sudan ebolavirus = experiment: Antiviral activity against pseudotyped Sudan ebolavirus expressing glycoprotein infected in human A549 cells assessed as inhibition of viral entry incubated for 48 hrs by Neolite reporter gene assay; format: functional, organism-based; details: A549, 48 h
Zaire ebolavirus = experiment: Antiviral activity against pseudotyped Zaire ebolavirus expressing glycoprotein infected in human A549 cells assessed as inhibition of viral entry incubated for 48 hrs by Neolite reporter gene assay; format: functional, organism-based; details: A549, 48 h
Ebolavirus [3] = experiment: Antiviral activity against wildtype Ebola virus infected in human HeLa cells incubated for 40 hrs by Hoechst 33342 staining based Cytation-1 automated microscopic analysis; format: functional, organism-based; details: Orthoebolavirus
[4] = test system: Vesicular stomatitis virus; experiment: Antiviral activity against pseudotyped vesicular stomatitis virus expressing glycoprotein infected in human A549 cells assessed as inhibition of viral entry incubated for 48 hrs by Neolite reporter gene assay; format: functional, organism-based
Bundibugyo virus = experiment: Antiviral activity against pseudotyped Bundibugyo ebolavirus expressing glycoprotein infected in human A549 cells assessed as inhibition of viral entry incubated for 48 hrs by Neolite reporter gene assay; format: functional, organism-based; details: A549, 48 h
[5] = Selectivity index, ratio of CC50 for human HeLa cells to EC50 for antiviral activity against wildtype Ebolavirus infected in human HeLa cells; format: toxicity, cell-based; details: read-out: Ratio CC50/EC50
Ebolavirus [6] = experiment: Binding affinity to Ebolavirus glycoprotein by SPR analysis

SMILES	EC50 (Marburgvirus) [nM]	EC50 (Ebolavirus [1]) [nM]	selectivity ratio [2]	further results
O=C(Nc1ccc(C23CC4CC(CC(O)(C4)C2)C3)cc1)c1ccc(CN2CCOCC2)cc1	25000	64600		
CC1(C)CCCN(c2ccc(NC(=O)c3ccc(CN4CCOCC4)cc3)cc2C(F)(F)F)C1	6580	370	107	
O=C(Nc1ccc(N2CCC3(CCC3)CC2)c(C(F)(F)F)c1)c1ccc(CN2C[C@H]3C[C@@H]2CO3)nc1	880	210		inhibition (Influenza A virus): Weak_effect; EC50 (Tai Forest ebolavirus): 170 nM; EC50 (Reston ebolavirus): 400 nM; CC50 (HeLa): 13400 nM; EC50 (Sudan ebolavirus): 420 nM; EC50 (Zaire ebolavirus): 210 nM; EC50 (Ebolavirus [3]): 520 nM; inhibition [4]: Weak_effect; EC50 (Bundibugyo virus): 960 nM
O=C(Nc1ccc(N2CCOCC2)c(C(F)(F)F)c1)c1ccc(CN2CCOCC2)cc1	6970	490	69	
O=C(Nc1ccc(CN2CCOCC2)cc1)Nc1ccc(C23CC4CC(CC(C4)C2)C3)cc1	2580	370	32	selectivity ratio [5]: 24; CC50 (HeLa): 16600 nM; EC50 (Ebolavirus [3]): 700 nM
CC1CCN(c2ccc(NC(=O)c3ccc(CN4CCOCC4)cc3)cc2C(F)(F)F)CC1	5280	220	129	selectivity ratio [5]: 77; EC50 (Tai Forest ebolavirus): 170 nM; EC50 (Reston ebolavirus): 740 nM; Activity (Ebolavirus [6]): Active; CC50 (HeLa): 42700 nM; EC50 (Sudan ebolavirus): 1280 nM; EC50 (Zaire ebolavirus): 220 nM; EC50 (Ebolavirus [3]): 540 nM; EC50 (Bundibugyo virus): 3670 nM
CN1CCN(c2ccc(NC(=O)c3ccc(CN4CCOCC4)cc3)cc2C(F)(F)F)CC1	3930	970	37	
CC(C)C1CCN(c2ccc(NC(=O)c3ccc(CN4CCOCC4)cc3)cc2C(F)(F)F)CC1	5640	560	28	
CC1CCN(c2ccc(NC(=O)Nc3ccc(CN4CCOCC4)cc3)cc2C(F)(F)F)CC1	3490	2180	7	
CC1CCN(c2ccc(NC(=O)c3ccc(CN4CCOCC4)cc3)cc2F)CC1	> 100000	> 100000	> 1	
CC1CCN(c2ccc(NC(=O)c3ccc(CN4CCOCC4)nc3)cc2C(F)(F)F)CC1	1120	400	138	
O=C(Nc1ccc(C23CC4CC(CC(C4)C2)C3)cc1)c1ccc(CN2CCOCC2)cc1	8070	150	495	
O=C(Nc1ccc(N2CCC3(CCC3)CC2)c(C(F)(F)F)c1)c1ccc(C(=O)N2C[C@H]3C[C@@H]2CO3)nc1	3890	230	201	selectivity ratio [5]: 49; inhibition (Influenza A virus): Weak_effect; EC50 (Tai Forest ebolavirus): 130 nM; EC50 (Reston ebolavirus): 260 nM; CC50 (HeLa): 43400 nM; EC50 (Sudan ebolavirus): 1610 nM; EC50 (Zaire ebolavirus): 230 nM; EC50 (Ebolavirus [3]): 890 nM; inhibition [4]: Weak_effect; EC50 (Bundibugyo virus): 1190 nM
CC1CCN(c2ccc(N(C)C(=O)c3ccc(CN4CCOCC4)cc3)cc2C(F)(F)F)CC1	7560	1550	33	
CC1CCN(c2ccc(NC(=O)c3ccc(CN4C[C@@H]5C[C@H]4CO5)cc3)cc2C(F)(F)F)CC1	1340	230	86	
O=C(Nc1ccc(Cl)c(C(F)(F)F)c1)c1ccc(CN2CCOCC2)cc1	5600	8090	6	
O=C(Nc1ccc(SC(F)(F)F)c(Cl)c1)c1ccc(CN2CCOCC2)cc1	8430	4950	5	
O=C(Nc1ccc(CN2CCOCC2)cc1)c1ccc(Cl)c(C(F)(F)F)c1	5660	7760	9	
O=C(Nc1ccc(C23CC4CC(CC(C4)C2)C3)cc1)c1ccc(CN2C[C@@H]3C[C@H]2CO3)cc1	1330	200	77	selectivity ratio [5]: 17; Activity (Ebolavirus [6]): Active; CC50 (HeLa): 10300 nM; EC50 (Ebolavirus [3]): 610 nM
O=C(Nc1ccc(N2CC3(CCC3)C2)c(C(F)(F)F)c1)c1ccc(CN2CCOCC2)cc1	3650	860	116	

SMILES	EC50 (Marburgvirus) [nM]	EC50 (Ebolavirus [1]) [nM]	selectivity ratio [2]	further results
O=C(Nc1ccc(C(F)(F)F)c(Cl)c1)c1ccc(CN2CCOCC2)cc1	3910	22100	1	
O=C(Nc1ccc(N2CCC2)c(C(F)(F)F)c1)c1ccc(CN2CCOCC2)cc1	42400	14900	6	
O=C(N[C@]12CC3CC(C[C@@H](C3)C1)C2)c1ccc(CN2CCOCC2)cc1	53800	6270	16	
O=C(Nc1ccc(N2CCCC2)c(C(F)(F)F)c1)c1ccc(CN2CCOCC2)cc1	14900	3300	18	
O=C(Nc1ccc(N2CCC3(CCC3)CC2)c(C(F)(F)F)c1)c1ccc(CN2CCOCC2)cc1	1110	90	209	
CC1CCN(c2ccc(NC(=O)c3ccc(CN4C[C@@H]5C[C@H]4CO5)nc3)cc2C(F)(F)F)CC1	3430	310	149	Activity (Ebolavirus [6]): Active
CC1CCN(c2ccc(NC(=O)c3ccc(CN4CCOCC4)cc3)cc2Cl)CC1	18500	4320	6	
CC1CCCN(c2ccc(NC(=O)c3ccc(CN4CCOCC4)cc3)cc2C(F)(F)F)C1 (configuration not stated)	3060	300	142	
O=C(Nc1ccc(C23CC4CC(CC(C4)C2)C3)cc1)c1ccc(CN2C[C@@H]3C[C@H]2CO3)nc1	2800	230	258	Activity (Ebolavirus [6]): Active
CC1CCN(c2ccc(NC(=O)c3ccc(CN4CCOCC4)cc3)cn2)CC1	24400	12400	8	
CC1CCN(c2ccc(C(=O)Nc3ccc(CN4CCOCC4)cc3)cc2C(F)(F)F)CC1	2900	1030	23	
CC1CC(C)CN(c2ccc(NC(=O)c3ccc(CN4CCOCC4)cc3)cc2C(F)(F)F)C1 (configuration not stated)	5340	1070	52	
CC1CCN(c2ccc(N(CC3CC3)C(=O)c3ccc(CN4CCOCC4)cc3)cc2C(F)(F)F)CC1	4610	1820	22	
CC(C)(C)c1ccc(NC(=O)c2ccc(CN3CCOCC3)cc2)c(C(C)(C)C)c1	17100	3320	30	
CC1(C)CCN(c2ccc(NC(=O)c3ccc(CN4CCOCC4)cc3)cc2C(F)(F)F)C1	1450	190	321	
CC(C)(C)C1CCN(c2ccc(NC(=O)c3ccc(CN4CCOCC4)cc3)cc2C(F)(F)F)CC1	6150	1450	13	
CC1CCN(c2ccc(NC(=O)c3ccc(CN4C[C@@H]5C[C@H]4CO5)cn3)cc2C(F)(F)F)CC1	8230	290	345	
O=C(c1ccc(CN2CCOCC2)cc1)N(c1ccccc1)c1ccccc1	71100	6720	> 15	
O=C(Nc1csc(N2CCOCC2)n1)c1ccc(CN2CCOCC2)cc1	> 100000	> 100000	> 1	
